Literature values, collected in patent US12075777B2, “Antimicrobial formulation” (Anitox Corporation, priority 2011, dated 2024).

Key:
[1] = tested on: Staphylococcus aureus, E. coli and Salmonella typhimurium
[2] = 0, 0.1, 0.2, 0.3 and 0.4% in water
yeast = tested on: yeast; set-up: dose or concentration left out as unconfirmed; conditions: 10^5 CFU/bottle; equivalence: trans-2-hexenal with thermal treatment (56° C.) vs citral
pears and apples = conditions: 12.5 μL/L; twenty four hours to seven days exposure
peaches and nectarines = conditions: at 40 μL/L
soybean seed = conditions: 1.8 of trans-2-hexenal/mL of air
[3] = tested on: A. flavus, P. notatum, A. alternate, F. oxysporum, Cladosporium species, B. subtilis and A. tumerfaciens

## CC/C=C/CC=O [(3E)-hexenal]
[1]
  effective level in controlling bacteria: 3 to 30 µg/mL

## CC(=O)O [acetic acid]
[2]
  effect on performance or intestinal microbial counts: did not affect performance or intestinal microbial counts

## CC(C)=CCCC(C)=CC=O [citral]
yeast
  concentration controlling yeast in beverages: 100-120 ppm
E. coli
  concentration in growth media that reduced the concentration of E. coli: more than 0.01%
  concentration with bactericidal effect: 0.08%

## CCC/C=C/C=O [trans-2-hexenal]
Pears and apples
  effect on fruit appearance, color, firmness, soluble solids content or titrateable acidity: did not affect
Peaches and nectarines
  phytotoxicity: phytotoxic
4000 ppm in diet, 13 wk
  body weight and intake: reduction in body weight and intake, but it was not significant
Dietary levels of 0, 260, 640, 1600 or 4000 ppm fed for 13 wk
  changes in hematological parameters or organ weights: did not induce any changes
Soybean seed
  inhibition of soybean seed germination: ~100%
[3]
  concentration that completely inhibited growth: 8 ng/L air
